Active and inactive are the calls of the source. The calls are words filed in the database; no cut-off is given here.
Legend:
JJN-3 [1] = experiment: Induction of apoptosis in human JJN-3 cells assessed as viable cells at 7.5 uM after 48 hrs by annexinV/propidium iodide staining (reference value: 75.9%); assay type: functional; conditions: JJN-3, 48 h, read-out: Activity
[2] = molecular target: T1, Tyrosine-protein kinase JAK3 (Homo sapiens, UniProt P52333); experiment: Inhibition of JAK3 (unknown origin) after 20 mins
T1 sequence (P52333 whole entry): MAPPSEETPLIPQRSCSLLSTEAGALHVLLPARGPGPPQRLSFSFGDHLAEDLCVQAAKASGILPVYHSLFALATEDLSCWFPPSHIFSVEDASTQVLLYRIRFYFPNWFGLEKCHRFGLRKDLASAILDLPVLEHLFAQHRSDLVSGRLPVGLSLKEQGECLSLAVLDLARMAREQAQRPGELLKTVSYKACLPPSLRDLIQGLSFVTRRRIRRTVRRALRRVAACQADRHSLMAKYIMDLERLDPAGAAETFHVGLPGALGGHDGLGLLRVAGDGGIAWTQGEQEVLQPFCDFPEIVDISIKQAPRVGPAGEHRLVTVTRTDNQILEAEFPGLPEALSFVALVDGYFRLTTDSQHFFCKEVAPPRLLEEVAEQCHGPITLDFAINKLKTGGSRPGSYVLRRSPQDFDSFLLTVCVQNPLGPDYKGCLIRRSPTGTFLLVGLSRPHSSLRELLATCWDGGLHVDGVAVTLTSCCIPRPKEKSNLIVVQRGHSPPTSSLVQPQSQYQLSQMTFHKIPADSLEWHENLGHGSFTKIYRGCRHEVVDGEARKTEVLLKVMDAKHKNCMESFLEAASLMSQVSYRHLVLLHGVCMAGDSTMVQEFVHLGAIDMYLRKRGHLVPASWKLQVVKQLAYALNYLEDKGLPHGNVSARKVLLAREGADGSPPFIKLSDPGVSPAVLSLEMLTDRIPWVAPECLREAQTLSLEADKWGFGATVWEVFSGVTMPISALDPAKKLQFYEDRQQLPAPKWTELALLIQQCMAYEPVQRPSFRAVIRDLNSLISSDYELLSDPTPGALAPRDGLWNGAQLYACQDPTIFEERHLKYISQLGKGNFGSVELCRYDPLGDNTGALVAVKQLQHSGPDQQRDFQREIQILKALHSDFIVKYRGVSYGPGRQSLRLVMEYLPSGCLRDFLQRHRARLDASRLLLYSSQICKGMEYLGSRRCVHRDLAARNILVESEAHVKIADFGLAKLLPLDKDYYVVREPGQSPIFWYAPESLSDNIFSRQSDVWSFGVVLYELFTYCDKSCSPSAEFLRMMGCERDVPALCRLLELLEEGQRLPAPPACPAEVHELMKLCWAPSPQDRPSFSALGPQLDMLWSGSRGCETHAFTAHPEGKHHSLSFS

JJN-3 [3] = experiment: Cytotoxicity against human JJN-3 cells assessed as growth inhibition after 48 hrs by MTT assay; assay type: functional, cell-based
[4] = molecular target: T2, Tyrosine-protein kinase JAK3 (Homo sapiens) (UniProt P52333); experiment: Inhibition of JAK3 (unknown origin) at 50 uM after 20 mins
T2 sequence (whole entry): T1 sequence (P52333 whole entry)

[5] = molecular target: Signal transducer and activator of transcription 3 (Homo sapiens) (UniProt P40763); experiment: Displacement of FAM-GpYLPQTV-NH2 from full-length Stat3 SH2 domain (unknown origin) up to 100 uM by fluorescence polarization
[6] = Induction of apoptosis in human XG6 cells assessed as late apoptotic cells at 7.5 uM after 48 hrs by annexinV/propidium iodide staining (reference value: 7.78%); assay type: functional
JJN-3 [7] = experiment: Induction of apoptosis in human JJN-3 cells assessed as early apoptotic cells at 12.5 uM after 48 hrs by annexinV/propidium iodide staining (reference value: 13.3%); assay type: functional
[8] = Induction of apoptosis in human XG6 cells assessed as early apoptotic cells at 7.5 uM after 48 hrs by annexinV/propidium iodide staining (reference value: 8.62%); assay type: functional
[9] = Induction of apoptosis in human XG6 cells assessed as viable cells at 12.5 uM after 48 hrs by annexinV/propidium iodide staining (reference value: 83.3%); assay type: functional; conditions: XG6, 48 h, read-out: Activity
[10] = system: Tyrosine-protein kinase ABL1 (Homo sapiens), P00519 [F317L]; experiment: Inhibition of ABL1 F317L mutant (unknown origin) at 2.5 uM after 20 mins
DU-145 = experiment: Cytotoxicity against human DU145 cells after 72 hrs by MTS assay; assay type: functional, cell-based
JJN-3 [11] = experiment: Induction of apoptosis in human JJN-3 cells assessed as viable cells at 12.5 uM after 48 hrs by annexinV/propidium iodide staining (reference value: 75.9%); assay type: functional; conditions: JJN-3, 48 h, read-out: Activity
[12] = Induction of apoptosis in human XG6 cells assessed as late apoptotic cells at 12.5 uM after 48 hrs by annexinV/propidium iodide staining (reference value: 7.78%); assay type: functional
[13] = molecular target: T3, Tyrosine-protein kinase JAK2 (Homo sapiens, UniProt O60674); experiment: Inhibition of JAK2 (unknown origin) at 50 uM after 20 mins
[14] = molecular target: T3, Tyrosine-protein kinase JAK2; experiment: Inhibition of JAK2 (unknown origin) after 20 mins
[15] = molecular target: AP2-associated protein kinase 1 (Homo sapiens) (UniProt Q2M2I8); experiment: Inhibition of AAK1 (unknown origin) at 2.5 uM after 20 mins
SK-MM-2 = experiment: Cytotoxicity against human SKMM-2 cells assessed as growth inhibition after 48 hrs by MTT assay; assay type: functional, cell-based
MDA-MB-468 = experiment: Cytotoxicity against human MDA-MB-468 cells after 72 hrs by MTS assay; assay type: functional, cell-based; conditions: MDA-MB-468, 72 h
XG6 [16] = experiment: Induction of apoptosis in human XG6 cells assessed as late apoptotic cells at 15 uM after 48 hrs by annexinV/propidium iodide staining; assay type: functional, cell-based
[17] = Induction of apoptosis in human XG6 cells assessed as viable cells at 7.5 uM after 48 hrs by annexinV/propidium iodide staining (reference value: 83.3%); assay type: functional; conditions: XG6, 48 h, read-out: Activity
[18] = molecular target: Signal transducer and activator of transcription 3 (Homo sapiens) (UniProt P40763); experiment: Displacement of FAM-GpYLPQTV-NH2 from full-length Stat3 SH2 domain (unknown origin) up to 400 uM by fluorescence polarization
[19] = molecular target: Leukocyte tyrosine kinase receptor (Homo sapiens, UniProt P29376); experiment: Inhibition of TYK1 (unknown origin) after 20 mins
JJN-3 [20] = experiment: Induction of apoptosis in human JJN-3 cells assessed as early apoptotic cells at 7.5 uM after 48 hrs by annexinV/propidium iodide staining (reference value: 13.3%); assay type: functional
JJN-3 [21] = experiment: Induction of apoptosis in human JJN-3 cells assessed as late apoptotic cells at 7.5 uM after 48 hrs by annexinV/propidium iodide staining (reference value: 9.59%); assay type: functional
[22] = molecular target: Signal transducer and activator of transcription 3 (Homo sapiens) (UniProt P40763); experiment: Inhibition of STAT3 phosphorylation in IL-6 stimulated human OPM2 cells at > IC50 after 30 mins by flow cytometry; assay type: cell-based; conditions: OPM-2
[23] = Induction of apoptosis in human XG6 cells assessed as early apoptotic cells at 12.5 uM after 48 hrs by annexinV/propidium iodide staining (reference value: 8.62%); assay type: functional
OCI-AML2 = experiment: Cytotoxicity against human OCI-AML2 cells after 72 hrs by MTS assay; assay type: functional, cell-based
JJN-3 [24] = experiment: Induction of apoptosis in human JJN-3 cells assessed as late apoptotic cells at 12.5 uM after 48 hrs by annexinV/propidium iodide staining (reference value: 9.59%); assay type: functional
XG6 [25] = experiment: Cytotoxicity against human XG6 cells assessed as growth inhibition at 10 uM after 48 hrs by MTT assay; assay type: functional, cell-based
[26] = molecular target: Tyrosine-protein kinase JAK1 (Homo sapiens) (UniProt P23458); experiment: Inhibition of JAK1 (unknown origin) at 100 uM after 20 mins

Signal transducer and activator of transcription 3 (Homo sapiens), sequence (P40763 whole entry, the tested form may be a part): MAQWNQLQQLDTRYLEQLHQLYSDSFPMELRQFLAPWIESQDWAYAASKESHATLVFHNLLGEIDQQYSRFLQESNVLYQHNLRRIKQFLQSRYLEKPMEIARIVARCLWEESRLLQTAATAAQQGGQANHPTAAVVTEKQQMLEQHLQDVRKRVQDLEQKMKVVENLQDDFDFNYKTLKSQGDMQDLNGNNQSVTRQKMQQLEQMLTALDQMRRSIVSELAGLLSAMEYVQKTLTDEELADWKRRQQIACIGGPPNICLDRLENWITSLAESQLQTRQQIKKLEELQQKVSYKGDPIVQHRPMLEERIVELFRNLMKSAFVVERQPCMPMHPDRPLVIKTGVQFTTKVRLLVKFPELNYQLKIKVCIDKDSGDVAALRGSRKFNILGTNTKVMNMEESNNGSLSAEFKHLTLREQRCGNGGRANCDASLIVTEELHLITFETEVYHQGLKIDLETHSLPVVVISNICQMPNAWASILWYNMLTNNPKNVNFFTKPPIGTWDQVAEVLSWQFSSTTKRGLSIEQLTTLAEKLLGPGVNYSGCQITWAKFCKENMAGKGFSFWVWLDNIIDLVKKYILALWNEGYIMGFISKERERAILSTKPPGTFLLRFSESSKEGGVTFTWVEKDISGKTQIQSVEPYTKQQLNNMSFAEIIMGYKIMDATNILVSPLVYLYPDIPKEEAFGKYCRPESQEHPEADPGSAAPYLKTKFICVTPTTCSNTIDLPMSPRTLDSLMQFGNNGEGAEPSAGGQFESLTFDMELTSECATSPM
T3 sequence (O60674 whole entry): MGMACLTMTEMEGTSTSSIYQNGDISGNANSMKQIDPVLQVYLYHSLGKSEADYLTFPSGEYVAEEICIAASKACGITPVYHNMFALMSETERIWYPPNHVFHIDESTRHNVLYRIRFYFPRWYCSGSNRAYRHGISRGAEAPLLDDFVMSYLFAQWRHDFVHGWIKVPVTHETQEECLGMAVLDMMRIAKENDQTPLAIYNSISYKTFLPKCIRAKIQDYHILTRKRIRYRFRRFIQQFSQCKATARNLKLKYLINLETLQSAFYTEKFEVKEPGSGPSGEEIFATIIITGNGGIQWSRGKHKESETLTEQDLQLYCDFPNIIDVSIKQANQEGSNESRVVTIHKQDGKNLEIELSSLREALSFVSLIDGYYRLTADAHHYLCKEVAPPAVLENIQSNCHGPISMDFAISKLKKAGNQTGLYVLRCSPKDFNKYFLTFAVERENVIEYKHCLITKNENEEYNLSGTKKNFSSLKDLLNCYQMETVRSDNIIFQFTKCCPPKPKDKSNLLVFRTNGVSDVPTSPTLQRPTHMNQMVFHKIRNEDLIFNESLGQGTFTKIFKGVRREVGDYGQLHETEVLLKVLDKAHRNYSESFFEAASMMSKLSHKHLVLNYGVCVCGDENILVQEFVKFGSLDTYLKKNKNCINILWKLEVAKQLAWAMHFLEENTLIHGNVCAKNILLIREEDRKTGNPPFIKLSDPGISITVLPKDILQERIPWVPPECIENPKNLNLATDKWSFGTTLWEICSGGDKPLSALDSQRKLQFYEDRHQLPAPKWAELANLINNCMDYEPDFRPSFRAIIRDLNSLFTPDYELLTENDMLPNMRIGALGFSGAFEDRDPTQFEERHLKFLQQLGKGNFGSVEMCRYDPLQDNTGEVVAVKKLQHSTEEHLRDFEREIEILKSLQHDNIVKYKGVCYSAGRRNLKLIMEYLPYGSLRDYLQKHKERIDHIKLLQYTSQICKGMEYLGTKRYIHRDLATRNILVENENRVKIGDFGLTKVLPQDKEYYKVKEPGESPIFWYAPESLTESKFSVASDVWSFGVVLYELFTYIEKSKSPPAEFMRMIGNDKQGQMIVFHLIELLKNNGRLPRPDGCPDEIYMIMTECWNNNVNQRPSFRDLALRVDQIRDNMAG
AP2-associated protein kinase 1 (Homo sapiens), sequence (Q2M2I8 whole entry, looked up): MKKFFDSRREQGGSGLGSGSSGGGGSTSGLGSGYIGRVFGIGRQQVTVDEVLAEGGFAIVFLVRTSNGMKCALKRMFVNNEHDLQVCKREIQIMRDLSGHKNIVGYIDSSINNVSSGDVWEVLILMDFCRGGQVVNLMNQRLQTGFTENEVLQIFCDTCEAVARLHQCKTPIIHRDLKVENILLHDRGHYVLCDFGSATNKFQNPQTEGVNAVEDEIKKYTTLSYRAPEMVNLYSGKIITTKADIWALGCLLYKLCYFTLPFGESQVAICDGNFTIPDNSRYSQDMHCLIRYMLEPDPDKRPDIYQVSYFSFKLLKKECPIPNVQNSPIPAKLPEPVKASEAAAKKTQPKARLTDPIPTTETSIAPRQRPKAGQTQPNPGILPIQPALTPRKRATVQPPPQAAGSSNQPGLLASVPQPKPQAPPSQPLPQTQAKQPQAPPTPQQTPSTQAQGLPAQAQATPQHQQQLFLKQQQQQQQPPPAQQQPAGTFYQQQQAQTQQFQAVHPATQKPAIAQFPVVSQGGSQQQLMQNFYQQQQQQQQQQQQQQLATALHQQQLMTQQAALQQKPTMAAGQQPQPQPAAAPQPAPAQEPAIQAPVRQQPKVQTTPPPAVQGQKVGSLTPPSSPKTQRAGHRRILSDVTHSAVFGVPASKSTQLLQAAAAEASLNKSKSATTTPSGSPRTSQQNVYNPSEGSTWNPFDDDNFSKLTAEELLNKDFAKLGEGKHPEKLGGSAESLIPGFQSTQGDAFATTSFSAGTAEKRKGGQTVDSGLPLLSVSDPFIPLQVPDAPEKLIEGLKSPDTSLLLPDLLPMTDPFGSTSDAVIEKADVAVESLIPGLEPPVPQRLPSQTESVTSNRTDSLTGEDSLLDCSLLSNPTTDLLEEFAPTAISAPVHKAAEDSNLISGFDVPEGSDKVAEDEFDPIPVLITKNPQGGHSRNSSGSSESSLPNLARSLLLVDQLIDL
Tyrosine-protein kinase ABL1 (Homo sapiens), P00519 [F317L], sequence (P00519 whole entry F317L): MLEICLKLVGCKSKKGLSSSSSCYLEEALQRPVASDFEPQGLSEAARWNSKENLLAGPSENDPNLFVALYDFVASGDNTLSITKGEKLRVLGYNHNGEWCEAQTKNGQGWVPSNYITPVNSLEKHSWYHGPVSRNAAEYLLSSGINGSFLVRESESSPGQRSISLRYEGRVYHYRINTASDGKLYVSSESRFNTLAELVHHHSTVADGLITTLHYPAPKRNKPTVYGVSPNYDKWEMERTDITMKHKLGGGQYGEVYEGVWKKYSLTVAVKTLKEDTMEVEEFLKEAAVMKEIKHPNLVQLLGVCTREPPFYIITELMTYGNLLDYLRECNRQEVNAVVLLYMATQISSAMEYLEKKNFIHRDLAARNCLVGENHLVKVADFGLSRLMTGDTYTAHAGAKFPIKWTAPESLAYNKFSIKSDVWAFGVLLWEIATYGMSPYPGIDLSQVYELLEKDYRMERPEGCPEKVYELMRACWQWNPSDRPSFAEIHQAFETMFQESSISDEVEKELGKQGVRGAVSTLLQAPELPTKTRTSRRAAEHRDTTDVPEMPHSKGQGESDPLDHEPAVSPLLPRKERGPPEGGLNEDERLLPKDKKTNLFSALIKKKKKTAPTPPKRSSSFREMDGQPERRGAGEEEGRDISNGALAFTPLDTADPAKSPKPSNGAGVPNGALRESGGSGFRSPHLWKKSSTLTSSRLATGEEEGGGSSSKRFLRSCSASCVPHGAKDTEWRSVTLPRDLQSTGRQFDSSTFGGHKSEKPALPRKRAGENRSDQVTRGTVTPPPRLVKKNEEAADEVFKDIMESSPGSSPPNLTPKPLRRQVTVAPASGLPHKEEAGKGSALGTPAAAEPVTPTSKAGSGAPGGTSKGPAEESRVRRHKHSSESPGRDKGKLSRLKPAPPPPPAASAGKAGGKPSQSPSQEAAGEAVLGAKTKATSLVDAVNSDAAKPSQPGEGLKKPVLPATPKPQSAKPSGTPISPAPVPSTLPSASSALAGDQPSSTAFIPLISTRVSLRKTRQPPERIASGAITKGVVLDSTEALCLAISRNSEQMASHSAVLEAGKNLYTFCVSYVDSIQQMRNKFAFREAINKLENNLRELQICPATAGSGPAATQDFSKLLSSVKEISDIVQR
Leukocyte tyrosine kinase receptor, sequence (P29376 whole entry): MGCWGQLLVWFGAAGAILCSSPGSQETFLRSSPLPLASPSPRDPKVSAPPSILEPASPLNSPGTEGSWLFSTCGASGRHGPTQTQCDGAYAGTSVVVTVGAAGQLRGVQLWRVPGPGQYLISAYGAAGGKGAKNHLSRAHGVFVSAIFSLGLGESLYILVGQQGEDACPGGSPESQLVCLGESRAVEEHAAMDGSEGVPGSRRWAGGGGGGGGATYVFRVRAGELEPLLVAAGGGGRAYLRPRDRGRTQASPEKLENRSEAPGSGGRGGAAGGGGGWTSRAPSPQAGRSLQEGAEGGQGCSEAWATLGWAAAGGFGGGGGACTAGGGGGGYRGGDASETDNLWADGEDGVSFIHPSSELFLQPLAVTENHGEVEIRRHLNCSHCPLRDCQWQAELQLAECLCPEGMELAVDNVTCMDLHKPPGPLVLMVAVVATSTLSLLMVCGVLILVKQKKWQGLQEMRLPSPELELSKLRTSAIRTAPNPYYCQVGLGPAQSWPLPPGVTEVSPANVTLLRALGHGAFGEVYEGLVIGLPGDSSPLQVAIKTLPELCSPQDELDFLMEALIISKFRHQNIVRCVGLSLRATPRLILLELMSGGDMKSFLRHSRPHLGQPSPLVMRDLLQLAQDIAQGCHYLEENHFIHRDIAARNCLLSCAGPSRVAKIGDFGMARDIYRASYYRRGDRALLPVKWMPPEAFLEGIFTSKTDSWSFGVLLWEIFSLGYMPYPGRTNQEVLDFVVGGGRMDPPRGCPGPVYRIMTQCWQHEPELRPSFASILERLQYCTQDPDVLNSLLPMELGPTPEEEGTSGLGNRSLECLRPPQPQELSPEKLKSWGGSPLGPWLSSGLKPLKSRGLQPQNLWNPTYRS

IC50 [2]: 10.5 µM | inhibition [4]: 85% | inhibition [5]: inactive | inhibition [10]: 50% | inhibition [13]: 50% | IC50 [14]: 16.6 µM | inhibition [15]: 52% | inhibition [18]: inactive | IC50 [19]: 10.6 µM | inhibition [22]: inactive | inhibition [26]: Active
Compound: NS(=O)(=O)OCCn1cnc2c(Nc3ccc(F)cc3)nc(NCc3ccc(C4CCCCC4)cc3)nc21
viability at 7.5 µM (JJN-3 [1]): 64.5% | growth inhibition (GI) (JJN-3 [3]): inactive | Activity [6]: 23.2% | Activity (JJN-3 [7]): 19.5% | Activity [8]: 22.7% | viability at 12.5 µM [9]: 1.98% | Activity (DU-145): Active | viability at 12.5 µM (JJN-3 [11]): 36.4% | Activity [12]: 74.4% | growth inhibition (GI) (SK-MM-2): Active | EC50 (MDA-MB-468): 19.9 µM | Activity (XG6 [16]): Active | viability at 7.5 µM [17]: 53.8% | Activity (JJN-3 [20]): 17.6% | Activity (JJN-3 [21]): 16% | Activity [23]: 7.57% | Activity (OCI-AML2): Active | Activity (JJN-3 [24]): 38.8% | growth inhibition (GI) (XG6 [25]): Active
